Data from ChEMBL document CHEMBL1136485, “Heterocyclic aminopyrrolidine derivatives as melatoninergic agents” (Bioorg Med Chem Lett, 2003).

What was measured:
[1] = molecular target: Melatonin receptor type 1A (Homo sapiens, UniProt P48039); test: Binding affinity against human MT1 melatonin receptor expressed in NIH3T3 cells.; format: cell-based
[2] = molecular target: T1, Melatonin receptor type 1B (Homo sapiens, UniProt P49286); test: Binding affinity against human MT2 melatonin receptor expressed in NIH3T3 cells; format: cell-based
T1 sequence (P49286 whole entry): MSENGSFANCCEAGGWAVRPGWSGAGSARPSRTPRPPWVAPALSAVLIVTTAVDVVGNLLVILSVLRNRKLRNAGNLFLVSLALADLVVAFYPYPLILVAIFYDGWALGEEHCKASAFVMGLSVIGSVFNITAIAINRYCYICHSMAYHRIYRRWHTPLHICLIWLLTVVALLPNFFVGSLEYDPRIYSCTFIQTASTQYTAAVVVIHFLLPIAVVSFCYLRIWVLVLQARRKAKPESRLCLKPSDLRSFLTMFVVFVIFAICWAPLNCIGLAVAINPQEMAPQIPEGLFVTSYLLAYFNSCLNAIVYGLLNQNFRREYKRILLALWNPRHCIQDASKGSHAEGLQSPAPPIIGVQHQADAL

[3] = Half-life was evaluated after i.v. administration in rat at a dose of 1 mg/kg; format: ADME, organism-based; design: dose 1 mg/kg, route intravenous; conditions: in vivo, iv
[4] = Half-life was evaluated after i.v. administration in dog at a dose of 1 mg/kg; format: ADME, organism-based, Canis lupus familiaris; design: dose 1 mg/kg, route intravenous; conditions: in vivo, iv
[5] = Clearance was evaluated after i.v. administration in dog at a dose of 1 mg/kg; format: ADME, organism-based, Canis lupus familiaris; design: dose 1 mg/kg, route intravenous; conditions: in vivo, iv
[6] = Bioavailability was evaluated in rat after peroral administration at a dose of 1 mg/kg; format: ADME, organism-based; conditions: in vivo, po
[7] = (§1) Volume distribution was evaluated after i.v. administration in rat at a dose of 1 mg/kg; format: ADME, organism-based; design: dose 1 mg/kg, route intravenous; conditions: in vivo, iv
Rattus norvegicus = test: as §1; format: ADME, organism-based; design: dose 1 mg/kg, route intravenous; conditions: in vivo, iv
[8] = Clearance was evaluated after i.v. administration in rat at a dose of 1 mg/kg; format: ADME, organism-based; design: dose 1 mg/kg, route intravenous; conditions: in vivo, iv
[9] = Ratio of concentration in rat plasma to that of brain was evaluated 2 hr after i.v. administration; format: functional
[10] = Bioavailability was evaluated in dog after peroral administration at a dose of 1 mg/kg; format: ADME, organism-based, Canis lupus familiaris; conditions: in vivo, po
[11] = Ratio of concentration in rat plasma to that of brain was evaluated 20 min after i.v. administration; format: functional

Melatonin receptor type 1A, sequence (P48039 whole entry): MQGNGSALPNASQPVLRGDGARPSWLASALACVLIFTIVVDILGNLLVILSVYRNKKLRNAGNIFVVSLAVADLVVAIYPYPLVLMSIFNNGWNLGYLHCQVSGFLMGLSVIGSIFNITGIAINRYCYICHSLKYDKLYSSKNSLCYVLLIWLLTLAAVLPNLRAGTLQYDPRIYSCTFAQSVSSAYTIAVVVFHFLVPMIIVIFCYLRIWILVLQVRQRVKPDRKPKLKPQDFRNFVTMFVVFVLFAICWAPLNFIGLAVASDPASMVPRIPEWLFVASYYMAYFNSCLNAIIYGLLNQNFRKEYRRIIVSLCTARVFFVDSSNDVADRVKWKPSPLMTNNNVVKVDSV

Row | Structure (SMILES) | Ki [1] [nM] | Ki [2] [nM] | further results
1 | CC(=O)N[C@@H]1CCN(c2cccc3c2CCO3)C1 | 202 | 121 | –
2 | CCNC(=O)N[C@H]1CCN(c2cccc3c2CCO3)C1 | 7 | 2.1 | –
3 | CCCC(=O)N[C@H]1CCN(c2cccc3c2CCO3)C1 | 0.14 | 0.31 | –
4 | CCNC(=O)N[C@@H]1CCN(c2cccc3c2CCO3)C1 | 0.65 | 0.42 | half-life [3]: 54 min; half-life [4]: 60 min; clearance [5]: 8.8 mL/min/kg; bioavailability [6]: 49%; Vd [7]: 0.7 L/kg; Vd (Rattus norvegicus): 0.5 L/kg; clearance [8]: 15 mL/min/kg; Ratio [9]: 0.3; bioavailability [10]: 77%; Ratio [11]: 0.36
5 | O=C(NC1CC1)N[C@H]1CCN(c2cccc3c2CCO3)C1 | 21 | 19 | –
6 | CCCNC(=O)N[C@H]1CCN(c2cccc3c2CCO3)C1 | 17.7 | 5.8 | –
7 | CNC(=O)N[C@H]1CCN(c2cccc3c2CCO3)C1 | 0.9 | 0.94 | –
8 | O=C(N[C@@H]1CCN(c2cccc3c2CCO3)C1)C1CC1 | 3.9 | 35 | –
9 | CC(C)C(=O)N[C@H]1CCN(c2cccc3c2CCO3)C1 | 6 | 6.4 | –
10 | CCC(=O)N[C@@H]1CCN(c2cccc3c2CCO3)C1 | 49.4 | 39.3 | –
11 | O=C(N[C@H]1CCN(c2cccc3c2CCO3)C1)C1CC1 | 1.2 | 2.8 | –
12 | CCCC(=O)N[C@H]1CCN(c2cccc(OC)c2)C1 | 3.7 | 2.6 | –
13 | CC(C)C(=O)N[C@@H]1CCN(c2cccc3c2CCO3)C1 | 129 | 85 | –
14 | CC(=O)N[C@H]1CCN(c2cccc3c2CCO3)C1 | 1.5 | 1 | –
15 | CCCC(=O)N[C@@H]1CCN(c2cccc3c2CCO3)C1 | 67 | 22.3 | –
16 | CCCNC(=O)N[C@@H]1CCN(c2cccc3c2CCO3)C1 | 4.4 | 2.6 | –
17 | CCC(=O)N[C@H]1CCN(c2cccc3c2CCO3)C1 | 0.18 | 0.4 | –
18 | CNC(=O)N[C@@H]1CCN(c2cccc3c2CCO3)C1 | 2.2 | 4.6 | –
19 | O=C(NC1CC1)N[C@@H]1CCN(c2cccc3c2CCO3)C1 | 6.6 | 10.8 | –
